# Columns and labels:
# C6 glioma = assay: 2H MRI visualisation of glioma C6 in rats in vivo; design: species or system Wistar rats; conditions: 4 hours after 150 mg i.p.
# Procedure: (§1) In the examples below, the MRI scanner Bruker BioSpec BC70/30 USR with the constant field of 7.05 T, equipped with a surface transmitting-and-receiving coil with a diameter of 3 cm and a scan depth of ca. 1 cm was used.
# (§2) To register deuterium image the FLASH (Fast low angle shot) pulse sequence was used.
# (§3) For experiments with the broadband excitation the following settings were used: the excitation frequency was determined by ^2H NMR spectrum and was sfo1≈46.1745 MHz, a rectangular excitation pulse with a width of 1300 Hz and a power of 36 dB, the flip angle FA=30°, the time TR=11.8 MS, echo time TE=4.4 msec, a scan area of 10 cm×10 cm, scan matrix, 50×50, slice thickness 3 cm, bandwidth of 12500 Hz, total scan time 10 minutes (1030 averages).
# In this example, experiments were conducted on Wistar rats inoculated with C6 glioma and in healthy Wistar rats.
# An animal with the weight of 210 g was injected intraperitoneally a solution of 150 mg of 2-amino-2-(CD3)-3,3,3-D3-propionic acid in 1.5 ml of a saline solution. After injection, the animal was kept in a separate cage with free access to food and water. To register the MR images and spectra an animal was immobilized with isoflurane. The surface transmitting-and-receiving coil was fixed over the head of the rat.
# [1] = test system: carcinoma of the breast 4T1; assay: 2H MRI visualisation of 4T1 breast carcinoma in mice in vivo; design: species or system mice Balb/c
# [2] = test system: carcinoma of the breast 4T1; assay: as above; design: species or system mice Balb/c; remark: listed apart in the source
# Procedure: as §1, §2, §3
# For experiments with selective excitation the following settings were used: excitation frequency sfo1=46.1745 MHz, a rectangular excitation pulse with a width of 130 Hz and a power of 48 dB, the flip angle FA=30°, the repetition time TR=25 MS, echo time TE=10 MS, a scanning area of 10 cm×10 cm, scan matrix 50×50, slice thickness 3 cm, bandwidth of 25,000 Hz, total scan time 10 minutes.
# In this example, experiments were conducted on mice Balb/c inoculated with carcinoma of the breast 4T1 (injection of 5×10^5 cells/60 μl under the left front paw for 10 days before experiment) and in healthy Balb/c mice.
# An animal no. 1-5 weighing 20 g was injected intraperitoneally with a solution of 20 mg of 2-amino-2-(CD3)-3,3,3-D3-propionic acid in 0.5 ml of a saline solution. An animal no. […] weighing 20 g was injected intraperitoneally with a solution of 10 mg (mouse no. 4) or 5 mg (mouse no. 5) 2-amino-2-(CD3)-3,3,3-D3-propionic acid in 0.25 ml of a saline solution. After injection, the animal was kept in a separate cage for a specified time (no. 1 with the tumor and no. 2 without the tumor: 40 min; no. 3 with the tumor: 115 min; no. 4 with the tumor: 20 and 360 min; no. 5 and no. 6 with the tumor: 30 min). To register the MR images and spectra an animal was immobilized with isoflurane. The surface transmitting-and-receiving coil was fixed on the body of the mouse on the dorsal side sequentially in two positions (thoracic, kidneys). The FIGS. 3-7 show ^2H MR images obtained with the use of the broadband excitation of the deuterium nuclei.
structure (smiles),measurement,setting,value
"[2H]C([2H])([2H])C(N)(C(=O)O)C([2H])([2H])[2H] [2-amino-2-(CD3)-3,3,3-D3-propionic acid]",localization of the deuterium signal (2H MRI),C6 glioma; rat with C6 glioma,localized in the region corresponding to the tumor
same,localization of the deuterium signal (2H MRI),C6 glioma; rats without tumors,does not show a clear localization
same,localization of the deuterium signal (2H MRI),"[1]; mouse no. 4 with tumor, 20 min after 20 mg i.p.","localized in the region corresponding to the most recently developed and actively growing parts of the tumor, and also in the area corresponding to the liver"
same,localization of the deuterium signal (2H MRI),"[1]; mouse no. 4 with tumor, 360 min after 20 mg i.p.",localized in the region corresponding to the most recently developed and actively growing parts of the tumor
same,localization of the deuterium signal (2H MRI),"[1]; mouse no. 5 with tumor, 30 min after 10 mg i.p.",localized in the region corresponding to individual parts of the tumor
same,localization of the deuterium signal (2H MRI),"[1]; mouse no. 6 with tumor, 30 min after 5 mg i.p.",localized in the region corresponding to individual parts of the tumor
same,localization of the deuterium signal (2H MRI),"[2]; control mouse no. 2 without the tumor, 40 min after 20 mg i.p.",localized in the region corresponding to the liver
same,allowable time range between administration and detection of deuterium,"[2]; mice with 4T1 tumor, 20 mg i.p., FIGS. 3, 5, 7 and 8",20 to 360 min
same,signal/noise ratio in the kidneys,"[2]; mouse no. 1, 40 min after 20 mg i.p., broadband excitation",approximately 25
same,localization of the deuterium signal (2H MRI),"[2]; mouse no. 1 with tumor, 40 min after 20 mg i.p.",localized in the region corresponding to the tumor
same,signal/noise ratio in the region of the tumor,"[2]; mouse no. 1 with tumor, 40 min after 20 mg i.p., broadband excitation",approximately 6
same,signal/noise ratio in the region of the tumor,"[2]; mouse no. 1 with tumor, 40 min after 20 mg i.p., selective excitation",about 4
same,localization of the deuterium signal (2H MRI),"[2]; mouse no. 3 with tumor, 115 min after 20 mg i.p.",localized in the region corresponding to the tumor and in the area corresponding to the liver
same,visibility of excised tumor on deuterium MR image,"[2]; tumors excised from mouse no. 3, 150 min after injection of 20 mg",clearly visible on deuterium MR image

# Source: patent publication US12082918B2, “Preparation for magnetic resonance diagnostics for oncological diseases, comprising deuterated 2-amino-2-methylpropionic acid and/or 2-(N-methylamino)-2-methylpropionic acid, and diagnostic method using said preparation” (SOLVEX LIMITED LIABILITY COMPANY, priority 2017, dated 2024)
